Laboratory results: patent publication US20100184673A1, “USE OF PARATHYROID HORMONE ( 1-34 ) AS ANTI-HIV AGENT” (priority 2007, published 2010)

Test system: drug-resistant Mycobacterium tuberculosis
Conditions: peptide 10 micrograms per ml, seven days

With `CC[C@H](C)[C@H](NC(=O)[C@H](CCC(=O)O)NC(=O)[C@H](CO)NC(=O)[C@@H](NC(=O)[C@@H](N)CO)C(C)C)C(=O)N[C@@H](CCC(N)=O)C(=O)N[C@@H](CC(C)C)C(=O)N[C@@H](CCSC)C(=O)N[C@@H](Cc1cnc[nH]1)C(=O)N[C@@H](CC(N)=O)C(=O)N[C@@H](CC(C)C)C(=O)NCC(=O)N[C@@H](CCCCN)C(=O)N[C@@H](Cc1cnc[nH]1)C(=O)N[C@@H](CC(C)C)C(=O)N[C@@H](CC(N)=O)C(=O)N[C@@H](CO)C(=O)N[C@@H](CCSC)C(=O)N[C@@H](CCC(=O)O)C(=O)N[C@@H](CCCN=C(N)N)C(=O)N[C@H](C(=O)N[C@@H](CCC(=O)O)C(=O)N[C@@H](Cc1c[nH]c2ccccc12)C(=O)N[C@@H](CC(C)C)C(=O)N[C@@H](CCCN=C(N)N)C(=O)N[C@@H](CCCCN)C(=O)N[C@@H](CCCCN)C(=O)N[C@@H](CC(C)C)C(=O)N[C@@H](CCC(N)=O)C(=O)N[C@@H](CC(=O)O)C(=O)N[C@H](C(=O)N[C@@H](Cc1cnc[nH]1)C(=O)N[C@@H](CC(N)=O)C(=O)N[C@@H](Cc1ccccc1)C(=O)O)C(C)C)C(C)C` [pTH (1-34)] the “% inhibition” value was 0.0%.
